GI50 and IC50 data for 17 molecules are collected here from patent publication US20260078135A1, “POLYCYCLIC QUINAZOLINES FOR INHIBITION OF ERBB2” (Enliven Inc., priority 2022, published 2026).

SMILES strings stand for the structures.

The target in one experiment is Ba/F3 ERBB2 YVMA (Homo sapiens, UniProt P04626, DUP772-775, cells depend on it). Kind of experiment: Cell viability assay (CellTiter Glo), Ba/F3 cells engineered to express ERBB2 YVMA. It is filed as cell-based, mouse. Conditions: Ba/F3 cells expressing human ERBB2 YVMA mutant, 72 hours, read-out: Ba/F3 ERBB2 YVMA, IC50. Summed up:
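Ba/F3 cells (IL-3-independent via stable retroviral human ERBB2 YVMA) seeded 3000/well and given compound from about 10 μM to 0.51 nM in three-fold steps, DMSO ≤0.1%, 72 h at 37° C. Viability by CellTiter Glo luminescence, normalized to DMSO and media-only controls. Sigmoidal nonlinear fit.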
A general note: ATP-based viability assays read luminescence as a measure of living cells.

In experiment [1] the target is T1, phosphorylated ERBB2 (pERBB2) (Homo sapiens, UniProt P04626).
T1 construct: endogenous in cells; host or cells: BT-474
T1 sequence (P04626 23-1255): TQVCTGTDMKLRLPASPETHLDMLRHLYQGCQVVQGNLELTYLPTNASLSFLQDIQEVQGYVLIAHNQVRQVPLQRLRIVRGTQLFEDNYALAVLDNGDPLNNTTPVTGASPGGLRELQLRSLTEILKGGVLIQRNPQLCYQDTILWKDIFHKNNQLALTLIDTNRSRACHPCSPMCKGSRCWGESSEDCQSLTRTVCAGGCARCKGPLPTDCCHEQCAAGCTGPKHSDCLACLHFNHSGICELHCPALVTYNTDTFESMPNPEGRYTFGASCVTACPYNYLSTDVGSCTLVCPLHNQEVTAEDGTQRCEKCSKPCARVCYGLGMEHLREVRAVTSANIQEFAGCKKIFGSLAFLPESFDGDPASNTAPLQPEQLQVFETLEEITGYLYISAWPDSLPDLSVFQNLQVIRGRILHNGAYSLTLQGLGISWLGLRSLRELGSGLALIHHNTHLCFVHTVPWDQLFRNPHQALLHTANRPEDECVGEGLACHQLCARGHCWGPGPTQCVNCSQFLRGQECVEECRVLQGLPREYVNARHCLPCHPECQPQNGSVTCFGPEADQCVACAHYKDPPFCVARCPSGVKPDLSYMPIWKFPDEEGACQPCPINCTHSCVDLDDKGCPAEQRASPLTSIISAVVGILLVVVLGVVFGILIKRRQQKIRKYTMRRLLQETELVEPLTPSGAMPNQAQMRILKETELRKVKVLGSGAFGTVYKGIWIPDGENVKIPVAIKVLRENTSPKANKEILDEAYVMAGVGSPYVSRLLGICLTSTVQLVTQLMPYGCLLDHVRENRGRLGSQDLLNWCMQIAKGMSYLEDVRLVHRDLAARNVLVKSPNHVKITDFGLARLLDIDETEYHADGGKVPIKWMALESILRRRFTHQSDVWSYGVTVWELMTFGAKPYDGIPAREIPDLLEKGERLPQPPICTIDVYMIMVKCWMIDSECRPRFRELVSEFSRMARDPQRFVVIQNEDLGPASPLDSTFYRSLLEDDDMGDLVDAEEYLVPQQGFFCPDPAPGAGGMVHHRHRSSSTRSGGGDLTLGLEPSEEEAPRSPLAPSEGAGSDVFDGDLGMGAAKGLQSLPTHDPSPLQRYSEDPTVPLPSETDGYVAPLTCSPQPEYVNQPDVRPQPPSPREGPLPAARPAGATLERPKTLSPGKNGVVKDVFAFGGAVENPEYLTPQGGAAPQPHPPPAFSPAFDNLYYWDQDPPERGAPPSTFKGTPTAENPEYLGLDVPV
Kind of experiment: Detection of phosphorylated ERBB2 (pERBB2) by ELISA in BT-474 cells. Type of experiment: cell-based. Conditions: four hour incubation. Summed up:
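BT-474 cells were treated with compounds (fourfold dilutions, 10 μM to 0.01 nM final) for 4 h at 37 °C, then lysed. pERBB2 in lysates was quantified by ELISA with an HRP anti-phosphotyrosine detection antibody and TMB read at 450 nm; % relative activity was normalized to no-cell and 0.1% DMSO controls.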

Experiment [2] concerns the target T2, phosphorylated EGFR (pEGFR) (Homo sapiens, UniProt P00533).
T2 construct: performed to measure phosphorylated EGFR levels using A431 cells (10% FBS); endogenous in cells; host or cells: A431
The experiment in a line: Detection of phosphorylated EGFR (pEGFR) by AlphaLISA in EGF-stimulated A431 cells. It is filed as cell-based. Conditions: A431 cells (10% FBS), 4 hours incubation, EGF 30 ng/mL for 10 minutes. Summed up:
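pEGFR was quantified by AlphaLISA in lysates of A431 cells (10% FBS) given a 10 min pulse of EGF at 30 ng/mL after 4 h compound exposure at 37 °C. IC50 came from a four-parameter fit of % inhibition between DMSO and staurosporine controls.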
(In Alpha technology, singlet oxygen from a donor bead excites a nearby acceptor bead.)

T2 sequence (P00533 25-1210): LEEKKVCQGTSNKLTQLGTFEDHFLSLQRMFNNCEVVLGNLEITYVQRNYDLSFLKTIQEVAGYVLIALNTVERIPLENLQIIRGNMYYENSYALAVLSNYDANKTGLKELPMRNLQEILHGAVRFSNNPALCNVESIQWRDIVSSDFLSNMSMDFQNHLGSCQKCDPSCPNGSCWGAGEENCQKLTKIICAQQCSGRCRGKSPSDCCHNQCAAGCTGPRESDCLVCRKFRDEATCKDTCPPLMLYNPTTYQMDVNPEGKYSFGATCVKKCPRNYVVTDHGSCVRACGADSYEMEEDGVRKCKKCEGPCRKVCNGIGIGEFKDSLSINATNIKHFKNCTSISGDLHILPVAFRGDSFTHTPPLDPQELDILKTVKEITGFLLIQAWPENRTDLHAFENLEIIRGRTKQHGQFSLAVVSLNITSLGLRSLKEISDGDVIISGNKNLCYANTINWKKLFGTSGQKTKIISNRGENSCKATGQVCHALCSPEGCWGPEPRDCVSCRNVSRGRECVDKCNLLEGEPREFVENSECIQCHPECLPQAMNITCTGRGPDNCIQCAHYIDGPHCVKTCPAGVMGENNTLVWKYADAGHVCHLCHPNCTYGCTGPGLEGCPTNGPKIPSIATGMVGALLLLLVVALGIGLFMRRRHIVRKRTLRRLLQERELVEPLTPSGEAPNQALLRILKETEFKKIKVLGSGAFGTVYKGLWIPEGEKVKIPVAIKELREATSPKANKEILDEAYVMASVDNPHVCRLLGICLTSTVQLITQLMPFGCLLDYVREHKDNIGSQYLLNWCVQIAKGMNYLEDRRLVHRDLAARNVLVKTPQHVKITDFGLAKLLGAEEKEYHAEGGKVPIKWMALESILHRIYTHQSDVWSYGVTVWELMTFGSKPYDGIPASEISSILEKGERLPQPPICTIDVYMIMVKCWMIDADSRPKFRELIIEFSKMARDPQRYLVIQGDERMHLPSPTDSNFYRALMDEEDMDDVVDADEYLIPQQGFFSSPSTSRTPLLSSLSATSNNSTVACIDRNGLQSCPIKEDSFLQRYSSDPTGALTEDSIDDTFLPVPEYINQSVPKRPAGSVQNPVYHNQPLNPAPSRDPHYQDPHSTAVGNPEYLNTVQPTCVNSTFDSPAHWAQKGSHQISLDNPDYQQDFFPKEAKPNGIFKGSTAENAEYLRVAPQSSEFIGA
Sequence of Ba/F3 ERBB2 YVMA (P04626 with tags, fused parts or gaps DUP772-775): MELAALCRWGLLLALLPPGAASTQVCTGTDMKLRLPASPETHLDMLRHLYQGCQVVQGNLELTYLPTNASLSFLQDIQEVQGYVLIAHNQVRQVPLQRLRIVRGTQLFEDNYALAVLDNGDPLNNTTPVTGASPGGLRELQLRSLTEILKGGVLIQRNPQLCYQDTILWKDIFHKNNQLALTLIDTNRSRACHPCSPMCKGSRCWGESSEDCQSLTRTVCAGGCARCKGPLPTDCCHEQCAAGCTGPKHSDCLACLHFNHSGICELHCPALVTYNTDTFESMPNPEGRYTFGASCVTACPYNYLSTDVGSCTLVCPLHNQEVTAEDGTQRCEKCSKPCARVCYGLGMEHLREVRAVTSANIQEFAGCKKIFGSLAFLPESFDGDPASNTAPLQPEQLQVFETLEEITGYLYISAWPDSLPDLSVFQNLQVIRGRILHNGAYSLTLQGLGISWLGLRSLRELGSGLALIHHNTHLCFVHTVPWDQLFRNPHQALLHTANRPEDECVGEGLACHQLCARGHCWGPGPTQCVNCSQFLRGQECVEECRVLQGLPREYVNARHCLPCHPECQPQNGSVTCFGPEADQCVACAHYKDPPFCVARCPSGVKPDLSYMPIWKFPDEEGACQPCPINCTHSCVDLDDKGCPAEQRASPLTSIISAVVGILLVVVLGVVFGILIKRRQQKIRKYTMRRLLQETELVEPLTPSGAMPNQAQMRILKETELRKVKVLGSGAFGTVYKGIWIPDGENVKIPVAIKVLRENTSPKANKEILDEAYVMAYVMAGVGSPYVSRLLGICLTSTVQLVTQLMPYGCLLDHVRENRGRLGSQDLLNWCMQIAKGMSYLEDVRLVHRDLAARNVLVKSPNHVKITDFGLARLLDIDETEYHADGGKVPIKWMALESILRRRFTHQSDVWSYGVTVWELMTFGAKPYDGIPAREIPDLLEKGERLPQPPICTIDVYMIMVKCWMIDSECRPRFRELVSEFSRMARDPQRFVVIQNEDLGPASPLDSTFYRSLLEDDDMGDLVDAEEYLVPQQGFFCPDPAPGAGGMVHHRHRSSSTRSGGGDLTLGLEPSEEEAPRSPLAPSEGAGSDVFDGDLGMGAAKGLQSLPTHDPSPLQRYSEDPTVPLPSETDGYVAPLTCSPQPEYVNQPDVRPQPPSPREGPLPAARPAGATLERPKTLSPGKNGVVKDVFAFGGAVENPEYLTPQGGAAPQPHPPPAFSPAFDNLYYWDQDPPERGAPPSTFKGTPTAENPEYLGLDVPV

One may read the IC50 as the point on the concentration scale where inhibition reaches its midpoint. For `Cc1cc(Nc2ncnc3ccc4c(c23)O[C@H]2CCN(C)C[C@@H]2N4)ccc1Oc1ccc2c(c1)ncn2C` (relative stereo) [Compound 126, trans-9-methyl-N-(3-methyl-4-((1-methyl-1H-benzo[d]imidazol-5-yl)oxy)phenyl)-7a,8,9,10,11,11a-hexahydro-7H-pyrido[3′,4′:5,6][1,4]oxazino[2,3-f]quinazolin-1-amine], the GI50 at Ba/F3 ERBB2 YVMA came out at 140 nM. For the same molecule, the results for the half-maximal inhibitory concentration (IC50) in experiment [1] and in experiment [2] were 62.1 nM and over 10000 nM, respectively.
As for `CN(C)C/C=C/C(=O)N1CCN2C[C@@H]1COc1c2ccc2ncnc(Nc3ccc(Oc4ccn5ncnc5c4)cc3)c12` [Compound 77, (E)-1-((3R)-13-((4-([1,2,4]triazolo[1,5-a]pyridin-7-yloxy)phenyl)amino)-2,3,5,6-tetrahydro-4H-3,7-methano[1,4,7]oxadiazonino[2,3-f]quinazolin-4-yl)-4-(dimethylamino)but-2-en-1-one], at Ba/F3 ERBB2 YVMA, the GI50 was 14.4 nM. For the same molecule, the IC50 in experiment [1] was found to be 6.51 nM; in experiment [2] it was 460 nM.
Taken in the same sequence, the figures for `Cc1cc(Nc2ncnc3cc4c(cc23)N2CCN(C(=O)/C=C/CN(C)C)C[C@H]2CO4)ccc1Oc1ccc2c(c1)ncn2C` [Compound 11, (S,E)-4-(dimethylamino)-1-(11-((3-methyl-4-((1-methyl-1H-benzo[d]imidazol-5-yl)oxy)phenyl)amino)-1,2,4a,5-tetrahydropyrazino[1′,2′:4,5][1,4]oxazino[3,2-g]quinazolin-3(4H)-yl)but-2-en-1-one] were 65.3 nM, 73.3 nM and 1180 nM.
With `Cc1cc(Nc2ncnc3ccc4c(c23)OC[C@H]2CN4CCN2C(=O)/C=C/[C@H](C)N(C)C)ccc1Oc1ccn2ncnc2c1` [Compound 89, (4S,E)-1-((3R)-13-((4-([1,2,4]triazolo[1,5-a]pyridin-7-yloxy)-3-methylphenyl)amino)-2,3,5,6-tetrahydro-4H-3,7-methano[1,4,7]oxadiazonino[2,3-f]quinazolin-4-yl)-4-(dimethylamino)pent-2-en-1-one], the GI50 at Ba/F3 ERBB2 YVMA came out at 264 nM. The figures for the IC50 in experiment [1] and in experiment [2] were 172 nM and over 10000 nM, respectively.
The corresponding values for `Cc1cc(Nc2ncnc3cc4c(nc23)N2CCN(C(=O)/C=C/CN(C)C)C[C@@H]2CO4)ccc1Oc1ccn2ncnc2c1` [Compound 15, (R,E)-1-(11-((4-([1,2,4]triazolo[1,5-a]pyridin-7-yloxy)-3-methylphenyl)amino)-1,2,4a,5-tetrahydropyrazino[1,2-d]pyrimido[4′,5′:5,6]pyrido[3,2-b][1,4]oxazin-3(4H)-yl)-4-(dimethylamino)but-2-en-1-one] are 4.89 nM, 6.93 nM and 284 nM.
Consider `Cc1cc(Nc2ncnc3cc4c(nc23)N2CCN(C(=O)/C=C/CN(C)C)C[C@H]2CO4)ccc1Oc1ccc2c(c1)ncn2C` [Compound 17, (S,E)-4-(dimethylamino)-1-(11-((3-methyl-4-((1-methyl-1H-benzo[d]imidazol-5-yl)oxy)phenyl)amino)-1,2,4a,5-tetrahydropyrazino[1,2-d]pyrimido[4′,5′:5,6]pyrido[3,2-b][1,4]oxazin-3(4H)-yl)but-2-en-1-one], for which, on Ba/F3 ERBB2 YVMA, the GI50 came to 5.11 nM. The values for the IC50 in experiment [1] and in experiment [2] were 34.3 nM and 307 nM, respectively.
In the case of `Cc1cc(Nc2ncnc3ccc4c(c23)OC[C@H]2CN4CCN2C(=O)/C=C/C2CN(C)C2)ccc1Oc1ccn2ncnc2c1` [Compound 80, (E)-1-((3R)-13-((4-([1,2,4]triazolo[1,5-a]pyridin-7-yloxy)-3-methylphenyl)amino)-2,3,5,6-tetrahydro-4H-3,7-methano[1,4,7]oxadiazonino[2,3-f]quinazolin-4-yl)-3-(1-methylazetidin-3-yl)prop-2-en-1-one], the GI50 at Ba/F3 ERBB2 YVMA amounted to 77.2 nM. Besides, the results for the half-maximal inhibitory concentration (IC50) in experiment [1] and in experiment [2] were 22.8 nM and 701 nM, respectively.
The corresponding values for `Cc1cc(Nc2ncnc3ccc4c(c23)OC[C@H]2CN4CCN2C(=O)/C=C/CN(C)C)ccc1Oc1ccc2c(c1)nnn2C` [Compound 79, (E)-4-(dimethylamino)-1-((3R)-13-((3-methyl-4-((1-methyl-1H-benzo[d][1,2,3]triazol-5-yl)oxy)phenyl)amino)-2,3,5,6-tetrahydro-4H-3,7-methano[1,4,7]oxadiazonino[2,3-f]quinazolin-4-yl)but-2-en-1-one] are 6.04 nM, 14.2 nM and 84.4 nM.
Take `Cc1cc(Nc2ncnc3ccc4c(c23)OC[C@@H]2CN4CCN2C(=O)/C=C/CN(C)C)ccc1Oc1ccc2c(c1)ncn2C` [Compound 30, (E)-4-(dimethylamino)-1-((3S)-13-((3-methyl-4-((1-methyl-1H-benzo[d]imidazol-5-yl)oxy)phenyl)amino)-2,3,5,6-tetrahydro-4H-3,7-methano[1,4,7]oxadiazonino[2,3-f]quinazolin-4-yl)but-2-en-1-one]: at Ba/F3 ERBB2 YVMA, the GI50 was over 500 nM. Further, the 50% inhibitory concentration (IC50) in experiment [1] is 304 nM; in experiment [2], over 10000 nM.
Taken in the same sequence, the figures for `CN(C)C/C=C/C(=O)N1CCN2C[C@@H]1COc1c2ccc2ncnc(Nc3ccc(Oc4ccn5ncnc5c4)cc3F)c12` [Compound 78, (E)-1-((3R)-13-((4-([1,2,4]triazolo[1,5-a]pyridin-7-yloxy)-2-fluorophenyl)amino)-2,3,5,6-tetrahydro-4H-3,7-methano[1,4,7]oxadiazonino[2,3-f]quinazolin-4-yl)-4-(dimethylamino)but-2-en-1-one] were 10.9 nM, 8.87 nM and 341 nM.
For the molecule `Cc1cc(Nc2ncnc3cc4c(cc23)N2CCN(C(=O)/C=C/CN(C)C)C[C@H]2CO4)ccc1Oc1ccn2ncnc2c1` [Compound 9, (S,E)-1-(11-((4-([1,2,4]triazolo[1,5-a]pyridin-7-yloxy)-3-methylphenyl)amino)-1,2,4a,5-tetrahydropyrazino[1′,2′:4,5][1,4]oxazino[3,2-g]quinazolin-3(4H)-yl)-4-(dimethylamino)but-2-en-1-one], the GI50 on Ba/F3 ERBB2 YVMA is 41.2 nM. In addition, the IC50 worked out at 36.1 nM in experiment [1] and 1680 nM in experiment [2].
With `CC#CC(=O)N1CCN2c3cc4c(Nc5ccc(Oc6ccn7ncnc7c6)c(C)c5)ncnc4cc3OC[C@@H]2C1` [Compound 13, (S)-1-(11-((4-([1,2,4]triazolo[1,5-a]pyridin-7-yloxy)-3-methylphenyl)amino)-1,2,4a,5-tetrahydropyrazino[1′,2′:4,5][1,4]oxazino[3,2-g]quinazolin-3(4H)-yl)but-2-yn-1-one], on Ba/F3 ERBB2 YVMA, the GI50 worked out at 6.24 nM. Also, the IC50 was found to be 13 nM in experiment [1] and 254 nM in experiment [2].
In the case of `Cc1cc(Nc2ncnc3cc4c(cc23)N2CCOC[C@H]2CO4)ccc1Oc1ccc2c(c1)ncn2C` [Compound 121, (S)—N-(3-methyl-4-((1-methyl-1H-benzo[d]imidazol-5-yl)oxy)phenyl)-1,2,4a,5-tetrahydro-4H-[1,4]oxazino[4′,3′:4,5][1,4]oxazino[3,2-g]quinazolin-11-amine], on Ba/F3 ERBB2 YVMA, the GI50 came to 71 nM. Moreover, the IC50 in experiment [1] was 27.2 nM; in experiment [2], over 10000 nM.
The corresponding values for `C=CC(=O)N1CCN2c3ccc4ncnc(Nc5ccc(Oc6ccn7ncnc7c6)c(C)c5)c4c3OC[C@H]2C1` [Compound 6, (R)-1-(4-((4-([1,2,4]triazolo[1,5-a]pyridin-7-yloxy)-3-methylphenyl)amino)-6a,7,9,10-tetrahydropyrazino[1′,2′:4,5][1,4]oxazino[2,3-f]quinazolin-8(6H)-yl)prop-2-en-1-one] are 6.23 nM, 7.19 nM and 540 nM.
For `Cc1cc(Nc2ncnc3cc4c(nc23)N2CCN(C(=O)/C=C/CN(C)C)C[C@H]2CO4)ccc1Oc1ccn2ncnc2c1` [Compound 16, (S,E)-1-(11-((4-([1,2,4]triazolo[1,5-a]pyridin-7-yloxy)-3-methylphenyl)amino)-1,2,4a,5-tetrahydropyrazino[1,2-d]pyrimido[4′,5′:5,6]pyrido[3,2-b][1,4]oxazin-3(4H)-yl)-4-(dimethylamino)but-2-en-1-one], the GI50 on Ba/F3 ERBB2 YVMA came out at 1.47 nM. The figures for the IC50 in experiment [1] and in experiment [2] were 5.8 nM and 130 nM, respectively.
With `Cc1cc(Nc2ncnc3cnc4c(c23)OC[C@H]2CN(C(=O)/C=C/CN(C)C)CCN42)ccc1Oc1ccn2ncnc2c1` [Compound 113, (R,E)-1-(4-((4-([1,2,4]triazolo[1,5-a]pyridin-7-yloxy)-3-methylphenyl)amino)-6a,7,9,10-tetrahydropyrazino[1,2-d]pyrimido[5′,4′:4,5]pyrido[3,2-b][1,4]oxazin-8(6H)-yl)-4-(dimethylamino)but-2-en-1-one], the GI50 on Ba/F3 ERBB2 YVMA is 3.57 nM. Also, the concentration for half-maximal inhibition (IC50) turned out to be 11.3 nM in experiment [1] and 593 nM in experiment [2].
As to `C=CC(=O)N1CCN2c3nc4c(Nc5ccc(Oc6ccc7c(c6)ncn7C)c(C)c5)ncnc4cc3OC[C@H]2C1` [Compound 8, (R)-1-(11-((3-methyl-4-((1-methyl-1H-benzo[d]imidazol-5-yl)oxy)phenyl)amino)-1,2,4a,5-tetrahydropyrazino[1,2-d]pyrimido[4′,5′:5,6]pyrido[3,2-b][1,4]oxazin-3(4H)-yl)prop-2-en-1-one], the GI50 on Ba/F3 ERBB2 YVMA came to 13.3 nM. Besides, the IC50 in experiment [1] came to 18.1 nM; in experiment [2], 643 nM.
